Marks after values point to notes of the source that are not given here.
What was measured:
NOD/Itj mice [1] = test: Lymphocyte infiltration in submandibular gland of NOD/Itj mice (HE staining, Image J); type: in vivo; conditions: 14th week, gastric gavage from 8th week, microcapsules 0.4 mmol/kg NO3−, NaNO3 0.4 mmol/kg, Vc 2 mmol/kg
Description: The salivary flow rate was measured every two weeks from the 8th week after birth, and the saliva was collected. At the same time, the submandibular gland samples were collected and stained with HE for histological observation, and the degree of lymphocyte infiltration was analyzed by Image J.
After the experimental animals were sacrificed, they were placed on supine position, disinfected, and the neck was incised to dissect the submandibular gland completely. The tissues were washed with PBS, cut into 0.2 cmx 0.2 cm, and fixed in 4% paraformaldehyde (pH 7.2) at 4° C. for 24-48 h. After dehydration, wax impregnation and embedding, the tissues were sectioned at a thickness of 4 μm and baked, followed by hematoxylin and eosin (HE) staining. The remaining fresh samples were placed in a refrigerator at −80° C.
(§1) Saliva flow rate was measured […].

[2] = In vivo test: nitrate content in the blood of mice after single gastric gavage; conditions: 2 mmol/kg sodium nitrate, once
Description: Blood was collected from vena caudalis at 0 h, and 2, 4, 6, 12, and 24 h after gastric gavage, respectively.

NOD/Itj mice [3] = test: Salivary flow rate of NOD/Itj mice (animal model of SS); type: in vivo; conditions: for effect on salivary flow rate of NOD/Itj mice (in words): gastric gavage; for Salivary flow rate (mean value ± SD): NOD/Itj mice, gastric gavage from 8th week, microcapsules 0.4 mmol/kg NO3−, NaNO3 0.4 mmol/kg, Vc 2 mmol/kg
Description: Therefore, the NOD/Itj mouse can be used as an animal model of SS. Subsequently, the microcapsules of the present invention were administered by gastric gavage, the saliva flow rate was monitored, and the experimental samples were collected at the 12th week to observe the prophylactic and therapeutic effects of the microcapsules of the present invention on SS.
After proper anaesthesia, the mice were injected I.P. with pilocarpine nitrate in aseptic normal saline at a concentration of 0.4 mg/ml and a dosage of 0.5 mg/100 g b.w. After the injection, the mice were laid on a 20° inclined mouse board on prone position, with the head slightly inclined downward, so that the head was in a slightly lower position. About 5 minutes after the injection, after the first drop of saliva from the mouth of the mouse, after 5 minutes, the time was recorded and the saliva was collected, and the amount of saliva was collected for 20 minutes (the amount of saliva is detected by inserting a small sterile cotton ball with known weight under the tongue of mouse, and weighing cotton ball 20 minutes later).
as §1

[4] = after oral administration; cited from earlier work

Row | SMILES | Infiltration area of the submandibular gland (NOD/Itj mice [1]) | Nitrate content in the blood of the mice after single administration ([2]; 0 h) [µmol/L] | Nitrate content in the blood of the mice after single administration ([2]; 2 h) [µmol/L] | Nitrate content in the blood of the mice after single administration ([2]; 4 h) [µmol/L] | Nitrate content in the blood of the mice after single administration ([2]; 6 h) [µmol/L] | Nitrate content in the blood of the mice after single administration ([2]; 12 h) [µmol/L] | Nitrate content in the blood of the mice after single administration ([2]; 24 h) [µmol/L] | effect on salivary flow rate of NOD/Itj mice (in words) (NOD/Itj mice [3]) | Salivary flow rate (mean value ± SD) (NOD/Itj mice [3]; week 8) [g/10 min] | Salivary flow rate (mean value ± SD) (NOD/Itj mice [3]; week 9) [g/10 min] | Salivary flow rate (mean value ± SD) (NOD/Itj mice [3]; week 10) [g/10 min] | Salivary flow rate (mean value ± SD) (NOD/Itj mice [3]; week 11) [g/10 min] | Salivary flow rate (mean value ± SD) (NOD/Itj mice [3]; week 12) [g/10 min] | Salivary flow rate (mean value ± SD) (NOD/Itj mice [3]; week 13) [g/10 min] | Salivary flow rate (mean value ± SD) (NOD/Itj mice [3]; week 14) [g/10 min] | half-life in vivo [4] [h]
1 | O=[N+]([O-])[O-].[Na+] [NaNO3, sodium nitrate] | 4.42 ± 0.54^b % | 41.8 | 1052.8 | 572.4 | 297.4 | 45.3 | 32.7 | no obvious influence | 0.078 ± 0.011 | 0.068 ± 0.006 | 0.060 ± 0.004 | 0.057 ± 0.004 | 0.061 ± 0.009 | 0.062 ± 0.007 | 0.059 ± 0.009 | 
2 | O=C1O[C@H]([C@@H](O)CO)C(O)=C1O [Vc, vitamin C] | 5.16 ± 0.58% |  |  |  |  |  |  | no obvious influence | 0.077 ± 0.012 | 0.063 ± 0.008 | 0.049 ± 0.007 | 0.041 ± 0.008 | 0.038 ± 0.006 | 0.035 ± 0.008 | 0.034 ± 0.007 | 2

Source: patent US20240342135A1, “USE OF NITRATE AND VITAMIN C MICROCAPSULE FOR TREATING SICCA SYNDROME” (CAPITAL MEDICAL UNIVERSITY, priority 2021, published 2024)
